Data on 4 molecules can be found in paper PMC8969271, “Release of moth pheromone compounds from Nicotiana benthamiana upon transient expression of heterologous biosynthetic genes” (BMC Biology, 2022).

Assay type in all cases: cell-based
One test deals with T1, CsupKPSE (Chilo suppressalis, UniProt A0A5Q0V425).
T1 construct: full-length ORF 1059 nt, 353 aa; synthesized gene; expressed in S. cerevisiae ole1/elo1 and N. benthamiana leaves
T1 sequence (A0A5Q0V425 20-371): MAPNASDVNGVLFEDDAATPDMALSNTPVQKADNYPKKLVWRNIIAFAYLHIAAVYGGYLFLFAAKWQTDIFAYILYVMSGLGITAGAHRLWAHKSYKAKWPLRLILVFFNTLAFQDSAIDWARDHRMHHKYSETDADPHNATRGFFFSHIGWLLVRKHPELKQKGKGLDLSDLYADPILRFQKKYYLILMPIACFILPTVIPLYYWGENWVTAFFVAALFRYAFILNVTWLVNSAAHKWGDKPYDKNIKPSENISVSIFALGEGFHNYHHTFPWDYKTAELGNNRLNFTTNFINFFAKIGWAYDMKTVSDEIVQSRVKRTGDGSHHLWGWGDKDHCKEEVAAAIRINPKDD
The test is described as follows: heterologous expression in yeast and N. benthamiana, GC/MS of fatty acid methyl esters. The note with it: endogenous palmitic acid (acyl form in cells, presumably acyl-CoA); product (Z)-9-hexadecenoic acid.

Test [1] has as its target T2, CsupFAR2 (Chilo suppressalis, UniProt A0A3S2LS93).
T2 construct: full-length ORF 1404 nt, 468 aa; synthesized gene; expressed in S. cerevisiae INVSc (pYES52) and N. benthamiana leaves
T2 sequence (A0A3S2LS93 1-468): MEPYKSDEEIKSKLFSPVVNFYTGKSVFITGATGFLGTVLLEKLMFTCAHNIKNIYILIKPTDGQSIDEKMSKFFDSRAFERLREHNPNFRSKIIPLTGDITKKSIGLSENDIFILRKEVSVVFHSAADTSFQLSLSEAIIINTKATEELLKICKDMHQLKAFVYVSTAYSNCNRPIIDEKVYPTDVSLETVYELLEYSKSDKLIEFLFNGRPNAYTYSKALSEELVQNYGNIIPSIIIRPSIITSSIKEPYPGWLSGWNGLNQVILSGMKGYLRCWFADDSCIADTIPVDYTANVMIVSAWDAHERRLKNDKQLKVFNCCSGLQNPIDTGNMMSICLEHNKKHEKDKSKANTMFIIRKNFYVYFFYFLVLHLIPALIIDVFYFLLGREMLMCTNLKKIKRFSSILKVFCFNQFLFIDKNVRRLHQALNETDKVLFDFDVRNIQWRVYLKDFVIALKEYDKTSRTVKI
The test is described as follows: co-expression with CsupKPSE in N. benthamiana leaves, GC/MS of fatty alcohols. The settings on record: acyl form in cells, presumably acyl-CoA; product (Z)-9-hexadecenol.

The target in the next test is T3, ATF1 (Saccharomyces cerevisiae, UniProt P40353).
T3 construct: expressed transiently in N. benthamiana leaves with AtrΔ11, CpuFatB1, CsupYPAQ and CsupFAR2
T3 sequence (P40353 1-525): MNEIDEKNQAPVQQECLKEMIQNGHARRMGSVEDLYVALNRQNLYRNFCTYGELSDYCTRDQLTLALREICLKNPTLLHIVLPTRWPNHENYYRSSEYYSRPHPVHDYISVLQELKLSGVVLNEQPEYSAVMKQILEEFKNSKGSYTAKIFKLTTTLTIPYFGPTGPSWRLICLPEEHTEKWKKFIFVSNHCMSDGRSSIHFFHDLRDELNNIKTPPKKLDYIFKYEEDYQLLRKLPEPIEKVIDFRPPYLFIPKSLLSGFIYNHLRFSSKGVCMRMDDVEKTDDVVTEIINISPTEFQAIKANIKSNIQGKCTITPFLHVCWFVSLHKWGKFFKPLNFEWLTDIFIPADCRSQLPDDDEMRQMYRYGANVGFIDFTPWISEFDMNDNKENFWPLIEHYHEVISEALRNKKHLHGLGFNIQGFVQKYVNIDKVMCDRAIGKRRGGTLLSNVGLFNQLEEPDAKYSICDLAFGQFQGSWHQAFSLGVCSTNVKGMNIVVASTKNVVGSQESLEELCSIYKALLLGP
The test is described as follows: co-expression with desaturases and CsupFAR2 in N. benthamiana leaves, SPME and GC/MS. The settings on record: endogenous acetyl donor; product (Z)-11-hexadecenyl acetate.

For test [2], the target named is T2, CsupFAR2. The test is described as follows: heterologous expression in yeast and N. benthamiana, GC/MS of fatty alcohols. The note with it: yeast supplemented with methyl (Z)-11-hexadecenoate or co-expressing CsupYPAQ; acyl form in cells, presumably acyl-CoA; product (Z)-11-hexadecenol.

In the case of `CCCCCCCCCCCCCCCC(=O)O` [16:acid, palmitic acid], the “heterologous expression in yeast and N. benthamiana, GC/MS of fatty acid methyl” value at CsupKPSE is on record as “CsupKPSE producing Z9-16:acid, the precursor of the minor pheromone component from palmitic acid”.

As to `CCCCCC/C=C\CCCCCCCC(=O)O` [Z9-16:acid, (Z)-9-hexadecenoic acid], the “co-expression with CsupKPSE in N. benthamiana leaves, GC/MS of fatty alcohols” value on CsupFAR2 [1] was “a minor amount of (Z)-9-hexadecenol (Z9-16:OH) was produced”.

On to `CCCC/C=C\CCCCCCCCCCO` [Z11-16:OH, (Z)-11-hexadecenol], for which the “co-expression with desaturases and CsupFAR2 in N. benthamiana leaves, SPME and G” value on ATF1 is on record as “Upon co-expression of the acetyltransferase gene ATF1, Z11-16:OAc was also released together with Z11-16:OH”.

With `CCCC/C=C\CCCCCCCCCC(=O)O` [Z11-16:acid, (Z)-11-hexadecenoic acid], the “heterologous expression in yeast and N. benthamiana, GC/MS of fatty alcohols” value at CsupFAR2 [2] was “it reduced the C. suppressalis pheromone precursors Z11-16:acid, Z9-16:acid”.
